For one data set, the target named is T1, RIPK1 (Homo sapiens, UniProt Q13546).
T1 sequence (Q13546 1-671): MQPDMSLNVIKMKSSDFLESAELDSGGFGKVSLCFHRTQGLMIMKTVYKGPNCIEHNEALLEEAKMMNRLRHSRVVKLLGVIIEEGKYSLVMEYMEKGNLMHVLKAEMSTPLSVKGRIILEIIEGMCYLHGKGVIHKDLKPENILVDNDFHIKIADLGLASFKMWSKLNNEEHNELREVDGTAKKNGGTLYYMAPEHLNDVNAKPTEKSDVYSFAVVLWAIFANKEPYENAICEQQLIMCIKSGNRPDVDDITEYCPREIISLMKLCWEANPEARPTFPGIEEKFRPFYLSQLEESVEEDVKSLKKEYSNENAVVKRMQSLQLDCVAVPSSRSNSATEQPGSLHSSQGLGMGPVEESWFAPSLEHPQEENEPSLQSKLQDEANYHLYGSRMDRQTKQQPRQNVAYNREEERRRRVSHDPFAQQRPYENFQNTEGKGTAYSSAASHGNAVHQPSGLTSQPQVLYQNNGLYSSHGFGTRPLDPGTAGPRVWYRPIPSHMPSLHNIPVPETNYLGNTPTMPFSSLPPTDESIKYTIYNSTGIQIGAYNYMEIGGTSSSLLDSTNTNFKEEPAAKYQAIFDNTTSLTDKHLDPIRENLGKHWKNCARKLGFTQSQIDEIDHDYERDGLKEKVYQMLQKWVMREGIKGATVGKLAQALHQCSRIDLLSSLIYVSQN
The experiment in a line: RIPK1 inhibition rate at 1 µM. The format is biochemical. The method, then:
Table 4. Selectivity, ClogP and LipE of compound 14, 15, 21, 32, 36. | column: RIPK1 IR@1µM (%)

In data set [1] the target is T2, RIPK2 (Homo sapiens, UniProt O43353).
T2 construct: purchased Promega
The experiment in a line: RIPK2 kinase inhibition assay (ADP-Glo). It is filed as biochemical. As to conditions: mean ± SD from two separate experiments. The method, then:
RIPK2 kinase activity was analysed using the ADP-Glo™ Assay Kit (RIPK2 Kinase Enzyme System, Promega, USA). Reactions were performed according to the instructions. Specific signal was calculated by subtracting values in the wells without protein and inhibitor from the values in the test wells.

For data set [2], the target named is T2, RIPK2. In words: Lipophilic ligand efficiency (LipE). As to conditions: LipE = pIC50 − ClogP.
The target of a further data set is T3, AO oxidase (Homo sapiens, UniProt Q06278).
T3 construct: could undergo mono oxidative metabolism in the human liver cytosol incubation system; from tissue; host or cells: human liver cytosol
In words: AO oxidative metabolism in human liver cytosol. As to conditions: human liver cytosol incubation; inhibitors raloxifene and menadione. It is filed as in vitro ADME. The method, then: However, we have done experiment on AO oxidative metabolism of compound 14 and P5. Both compound 14 and P5 could undergo mono oxidative metabolism in the human liver cytosol incubation system.

Data set [3] has as its system MDP-induced TNF-α secretion in Raw264.7. In words: TNF-α secretion in MDP-induced Raw264.7 (ELISA). It is filed as cell-based, mouse. As to conditions: Raw264.7, compounds 1 h then L18-MDP 20 µg/mL 24 h, series concentration. On the procedure: Raw 264.7 was cultured in DMEM containing 10% (w/v) foetal bovine serum (FBS). Cell were seeded at a density of 1 × 10^5 cells/well in a 48 well plate overnight, then cells were treated with different concentrations of compounds for1h, following by stimulated with L18-MDP (20 µg/mL, Invivogen) for 24 h. The Cell supernatants were harvested for enzyme-linked immunosorbent assay (ELISA).
TNFα commercial ELISA kits (DAKEWE) were used to detect TNFα in cell culture supernatants according to the manufacturer’s instructions. The concentration of cytokines was determined using multiwell spectrophotometer (SpetraMAX PLUS, Molecular Devices).

SMILES strings stand for the structures. Bounds are passed on as bounds.

T2 sequence (O43353 whole entry): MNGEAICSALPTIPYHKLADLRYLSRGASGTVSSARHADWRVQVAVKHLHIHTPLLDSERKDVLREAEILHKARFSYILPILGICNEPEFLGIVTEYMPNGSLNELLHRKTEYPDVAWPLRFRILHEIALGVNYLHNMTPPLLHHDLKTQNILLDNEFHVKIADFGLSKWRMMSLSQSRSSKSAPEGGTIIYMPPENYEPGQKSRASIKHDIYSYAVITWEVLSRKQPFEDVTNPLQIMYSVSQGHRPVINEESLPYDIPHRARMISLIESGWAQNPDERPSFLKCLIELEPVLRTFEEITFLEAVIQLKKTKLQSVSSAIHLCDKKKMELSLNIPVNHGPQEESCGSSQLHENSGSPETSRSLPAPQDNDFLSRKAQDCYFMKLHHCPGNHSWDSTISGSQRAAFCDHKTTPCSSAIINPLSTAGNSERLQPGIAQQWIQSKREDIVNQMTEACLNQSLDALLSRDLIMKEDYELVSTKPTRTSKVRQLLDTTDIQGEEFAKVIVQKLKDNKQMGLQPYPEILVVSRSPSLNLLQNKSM
T3 sequence (Q06278 whole entry): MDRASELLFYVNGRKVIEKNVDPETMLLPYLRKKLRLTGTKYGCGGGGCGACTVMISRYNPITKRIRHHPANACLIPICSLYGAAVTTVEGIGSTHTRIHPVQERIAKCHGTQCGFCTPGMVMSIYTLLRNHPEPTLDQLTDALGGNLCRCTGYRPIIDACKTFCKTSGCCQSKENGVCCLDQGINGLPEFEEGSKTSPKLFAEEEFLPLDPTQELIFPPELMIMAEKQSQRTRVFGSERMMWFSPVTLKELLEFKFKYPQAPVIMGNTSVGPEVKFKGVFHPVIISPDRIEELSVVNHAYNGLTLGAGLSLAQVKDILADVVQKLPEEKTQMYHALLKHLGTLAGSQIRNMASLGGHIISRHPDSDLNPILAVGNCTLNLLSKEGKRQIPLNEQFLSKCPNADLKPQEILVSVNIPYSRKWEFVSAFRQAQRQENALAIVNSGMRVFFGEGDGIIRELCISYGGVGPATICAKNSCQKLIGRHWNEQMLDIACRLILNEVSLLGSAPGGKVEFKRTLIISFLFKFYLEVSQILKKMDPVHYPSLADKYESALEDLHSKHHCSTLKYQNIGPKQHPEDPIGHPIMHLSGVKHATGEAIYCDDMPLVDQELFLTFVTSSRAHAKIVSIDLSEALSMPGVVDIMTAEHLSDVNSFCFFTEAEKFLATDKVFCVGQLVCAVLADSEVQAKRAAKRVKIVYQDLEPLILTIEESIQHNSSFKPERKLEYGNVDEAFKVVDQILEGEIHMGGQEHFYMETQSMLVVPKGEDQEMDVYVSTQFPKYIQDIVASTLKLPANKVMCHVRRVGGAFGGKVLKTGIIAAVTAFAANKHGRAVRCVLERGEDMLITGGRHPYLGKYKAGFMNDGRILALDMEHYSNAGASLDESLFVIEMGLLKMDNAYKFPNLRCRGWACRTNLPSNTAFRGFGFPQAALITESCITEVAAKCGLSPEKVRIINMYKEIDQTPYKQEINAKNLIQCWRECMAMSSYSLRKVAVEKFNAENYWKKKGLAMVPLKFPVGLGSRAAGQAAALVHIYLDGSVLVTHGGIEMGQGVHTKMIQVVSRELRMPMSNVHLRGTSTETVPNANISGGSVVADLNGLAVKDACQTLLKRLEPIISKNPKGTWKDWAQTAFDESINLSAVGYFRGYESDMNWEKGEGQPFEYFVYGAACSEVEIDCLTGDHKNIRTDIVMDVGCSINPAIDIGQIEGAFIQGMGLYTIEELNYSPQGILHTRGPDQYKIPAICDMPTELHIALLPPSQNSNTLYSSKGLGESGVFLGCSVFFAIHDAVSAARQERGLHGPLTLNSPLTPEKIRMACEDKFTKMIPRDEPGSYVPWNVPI

For the molecule `Cc1n[nH]cc1-c1ccc2nccc(Nc3ccc4scnc4c3)c2c1` [Compound 21, N-(6–(3-methyl-1H-pyrazol-4-yl)quinolin-4-yl)benzo[d]thiazol-5-amine], the “RIPK1 IR@1µM (%)” value on RIPK1 is listed as <1%. Moreover, inhibition against RIPK2 [1] was half-maximal at 4.1 ± 0.9 nM (IC50). Also, on RIPK2 [2], the LipE was determined as 4.99.

For the molecule `Brc1ccc2nccc(Nc3ccc4[nH]ccc4c3)c2c1` [Compound 13, 6-Bromo-N-(1H-indol-5-yl)quinolin-4-amine], the IC50 (in general, the concentration that gives 50% inhibition) at RIPK2 [1] is 118 ± 21.5 nM. Also, the LipE on RIPK2 [2] was found to be 2.82.

On RIPK2 [1], `COc1cc(Nc2ccnc3ccc(-c4cccc5[nH]ncc45)cc23)cc(OC)c1OC` [Compound 35, 6–(1 h-indazol-4-yl)-N-(3,4,5-trimethoxyphenyl)quinolin-4-amine] yielded an IC50 of 7.1 ± 4.7 nM. The LipE on RIPK2 [2] turned out to be 3.24.

Molecule `c1ccc(-c2ccc3nccc(Nc4ccc5scnc5c4)c3c2)cc1` [Compound 18, N-(6-phenylquinolin-4-yl)benzo[d]thiazol-5-amine] gave an IC50 against RIPK2 [1] of 24 ± 11.6 nM. The LipE at RIPK2 [2] is recorded as 5.81.

At RIPK2 [1], `Cn1cc(-c2ccc3nccc(Nc4ccc5scnc5c4)c3c2)cn1` [Compound 19, N-(6–(1-methyl-1H-pyrazol-4-yl)quinolin-4-yl)benzo[d]thiazol-5-amine] had an IC50 of 16.4 ± 1.6 nM. The molecule also displayed a LipE on RIPK2 [2] of 3.08.

In turn, `Brc1ccc2nccc(Nc3ccc4cn[nH]c4c3)c2c1` [Compound 12, 6-Bromo-N-(1H-indazol-6-yl)quinolin-4-amine] came in with an IC50 at RIPK2 [1] of 22.2 ± 5.2 nM. In addition, the LipE on RIPK2 [2] amounted to 3.49.

`Brc1ccc2nccc(Nc3cccnc3)c2c1` [Compound 8, 6-Bromo-N-(pyridin-3-yl)quinolin-4-amine] came in with an IC50 against RIPK2 [1] of 151 ± 30.1 nM. The LipE on RIPK2 [2] is reported as 3.68.

Regarding `COc1cc(Nc2ccnc3ccc(-c4ccncc4)cc23)cc(OC)c1OC` [Compound 31, 6-(Pyridin-4-yl)-N-(3,4,5-trimethoxyphenyl)quinolin-4-amine], the IC50 against RIPK2 [1] stood at 8.1 ± 3.9 nM. Further, the LipE at RIPK2 [2] turned out to be 3.87.

Take `COc1cc(Nc2ccnc3ccc(-c4c[nH]nc4C)cc23)cc(OC)c1OC` [Compound 38, 6–(3-Methyl-1H-pyrazol-4-yl)-N-(3,4,5-trimethoxyphenyl)quinolin-4-amine]: the concentration for half-maximal inhibition (IC50) against RIPK2 [1] amounted to 19.2 ± 0.7 nM. On RIPK2 [2], this molecule showed a LipE of 3.79.

Consider `COc1cc(Nc2ccnc3ccc(-c4cccnc4)cc23)cc(OC)c1OC` [Compound 32, 6-(Pyridin-3-yl)-N-(3,4,5-trimethoxyphenyl)quinolin-4-amine], for which, on RIPK1, the “RIPK1 IR@1µM (%)” value is listed as 19%. Moreover, at RIPK2 [1], the IC50 was 2.4 ± 0.2 nM. The same molecule returned a LipE on RIPK2 [2] of 4.30.

Regarding `c1cc(-c2ccc3nccc(Nc4ccc5scnc5c4)c3c2)c2cc[nH]c2c1` [Compound 26, N-(6-(1H-indol-4-yl)quinolin-4-yl)benzo[d]thiazol-5-amine], half-maximal inhibition against RIPK2 [1] (IC50) was put at 9.4 ± 1.1 nM. On RIPK2 [2], this molecule gave a LipE of 5.00.

For the molecule `CC(C)(C)S(=O)(=O)c1cc2c(Nc3ccc4scnc4c3)ncnc2cc1OCCO` [Compound P5, reference compound], the AO oxidase substrate result at AO oxidase was “metabolic substrates of AO oxidase”. Further, the 50% inhibitory concentration (IC50) at RIPK2 [1] came out at 2.6 ± 1.2 nM. Moreover, at RIPK2 [2], the LipE came to 6.70.

The molecule `c1cc(Nc2ccc3scnc3c2)c2cc(-c3ccc4[nH]ccc4c3)ccc2n1` [Compound 25, N-(6-(1H-indol-5-yl)quinolin-4-yl)benzo[d]thiazol-5-amine] came in with an IC50 at RIPK2 [1] of 11.1 ± 3.6 nM. In addition, the LipE on RIPK2 [2] was determined as 3.87.

Regarding `c1cncc(-c2ccc3nccc(Nc4ccc5scnc5c4)c3c2)c1` [Compound 15, N-(6-(pyridin-3-yl)quinolin-4-yl)benzo[d]thiazol-5-amine], the “RIPK1 IR@1µM (%)” value at RIPK1 is recorded as <1%. The “inhibition of MDP-induced TNF-α secretion” value in data set [3] is “almost no inhibition”. Half-maximal inhibition against RIPK2 [1] (IC50) was put at 6 ± 1.5 nM. Moreover, the LipE at RIPK2 [2] was determined as 4.27.

Take `Brc1ccc2nccc(Nc3ccc4scnc4c3)c2c1` [Compound 10, N-(6-bromoquinolin-4-yl)benzo[d]thiazol-5-amine]: on RIPK2 [1], the IC50 came out at 12.2 ± 2.5 nM. The same molecule yielded a LipE on RIPK2 [2] of 3.97.

Consider `c1ccc2ncc(-c3ccc4nccc(Nc5ccc6scnc6c5)c4c3)cc2c1` [Compound 30, N-([3,6'-biquinolin]-4'-yl)benzo[d]thiazol-5-amine], for which 41.7 ± 19 nM corresponded to half-maximal inhibition against RIPK2 [1] (IC50). Besides, the LipE on RIPK2 [2] amounted to 2.80.

At RIPK2 [1], `COc1cc(Nc2ccnc3ccc(Br)cc23)cc(OC)c1OC` [Compound 6, 6-Bromo-N-(3,4,5-trimethoxyphenyl)quinolin-4-amine] returned an IC50 of 10.7 ± 0.1 nM. For the same molecule, the LipE at RIPK2 [2] is listed as 3.63.

Regarding `COc1cc(Nc2ccnc3ccc(-c4cnn(C)c4)cc23)cc(OC)c1OC` [Compound 36, 6–(1-Methyl-1H-pyrazol-4-yl)-N-(3,4,5-trimethoxyphenyl)quinolin-4-amine], the “RIPK1 IR@1µM (%)” value on RIPK1 is <1%. Besides, it took 7.2 ± 2.6 nM to reach half-maximal inhibition against RIPK2 [1] (IC50). Besides, the LipE on RIPK2 [2] stood at 3.67.

As to `Cc1cnn(C)c1-c1ccc2nccc(Nc3ccc4scnc4c3)c2c1` [Compound 22, N-(6–(1,4-dimethyl-1H-pyrazol-5-yl)quinolin-4-yl)benzo[d]thiazol-5-amine], on RIPK2 [1], it took 19 ± 6.7 nM to reach half-maximal inhibition (IC50). On RIPK2 [2], this molecule came in with a LipE of 3.86.

In the case of `COc1cc(Nc2ccnc3ccc(-c4cncnc4)cc23)cc(OC)c1OC` [Compound 34, 6-(Pyrimidin-5-yl)-N-(3,4,5-trimethoxyphenyl)quinolin-4-amine], the concentration for half-maximal inhibition (IC50) on RIPK2 [1] amounted to 11 ± 1.7 nM. Further, at RIPK2 [2], the LipE is reported as 4.58.

For `COc1cc(Nc2ccnc3ccc(-c4ccccn4)cc23)cc(OC)c1OC` [Compound 33, 6-(Pyridin-2-yl)-N-(3,4,5-trimethoxyphenyl)quinolin-4-amine], the 50% inhibitory concentration (IC50) at RIPK2 [1] came to 12.4 ± 8.9 nM. Further, on RIPK2 [2], the LipE amounted to 3.26.

The values above are taken from article PMC9683047, “Design, synthesis and biological evaluation of 4-aminoquinoline derivatives as receptor-interacting protein kinase 2 (RIPK2) inhibitors” (Journal of Enzyme Inhibition and Medicinal Chemistry, 2022).
